Measurements published in ChEMBL document CHEMBL1137971, “Potent small molecule CCR1 antagonists” (Bioorg Med Chem Lett, 2004).

Columns and labels:
[1] = molecular target: T1, C-C chemokine receptor type 1 (Homo sapiens, UniProt P32246); test: Inhibition of CCL3 binding to C-C chemokine receptor type 1
T1 sequence (P32246 whole entry): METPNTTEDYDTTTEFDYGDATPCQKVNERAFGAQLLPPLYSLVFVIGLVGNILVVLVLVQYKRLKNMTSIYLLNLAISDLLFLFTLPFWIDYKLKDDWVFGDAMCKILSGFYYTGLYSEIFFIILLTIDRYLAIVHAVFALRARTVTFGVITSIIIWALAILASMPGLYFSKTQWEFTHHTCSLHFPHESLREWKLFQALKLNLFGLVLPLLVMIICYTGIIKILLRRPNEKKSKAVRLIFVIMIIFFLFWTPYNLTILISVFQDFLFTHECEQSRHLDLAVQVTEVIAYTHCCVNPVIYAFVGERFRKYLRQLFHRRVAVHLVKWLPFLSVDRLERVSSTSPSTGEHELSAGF

THP-1 [2] = test: Inhibition of CCL3 induced chemotaxis in THP-1 cells; assay type: functional, cell-based; conditions: Homo sapiens
THP-1 [3] = test: Inhibition of CCL3 induced chemotaxis in THP-1 cells; Not active; assay type: functional, cell-based, Homo sapiens
Homo sapiens = organism: Homo sapiens; test: Compound inhibits CCL3 induced CD11b up-regulation on monocytes in human whole blood; assay type: functional, organism-based

Compound: CNC(=O)[C@H](CC(C)C)C[C@H](O)[C@H](Cc1ccccc1)NC(=O)c1cnccn1
- IC50 [1]: > 32 µM
- IC50 (THP-1 [2]): > 25 µM

Compound: CC1(C)CC([C@H](C[C@H](O)[C@H](Cc2ccccc2)NC(=O)c2cnc3ccccc3n2)C(N)=O)CC(C)(C)C1
- IC50 [1]: 44.8 µM
- IC50 (THP-1 [2]): 4.6 µM

Compound: CNC(=O)[C@H](CC(C)C)C[C@H](O)[C@H](Cc1ccccc1)NC(=O)c1nccc2ccccc12
- IC50 [1]: 0.58 µM
- IC50 (THP-1 [2]): 2.4 µM

Compound: CNC(=O)[C@H](CC(C)C)C[C@H](O)[C@H](Cc1ccccc1)NC(=O)c1ccnc2ccccc12
- IC50 [1]: 18.5 µM
- IC50 (THP-1 [2]): 4.3 µM

Compound: CC(C)CC[C@H](C[C@H](O)[C@H](Cc1ccccc1)NC(=O)c1cnc2ccccc2n1)C(N)=O
- IC50 [1]: 0.028 µM
- IC50 (THP-1 [2]): 0.002 µM

Compound: CNC(=O)[C@H](CCC(C)C)C[C@H](O)[C@H](Cc1ccccc1)NC(=O)c1cnc2ccccc2n1
- IC50 [1]: 0.022 µM
- IC50 (THP-1 [2]): 0.008 µM

Compound: CNC(=O)[C@H](CC(C)C)C[C@H](O)[C@H](Cc1ccccc1)NC(=O)c1cc2ccccc2nc1O
- IC50 [1]: 16.7 µM
- IC50 (THP-1 [2]): > 25 µM

Compound: CNC(=O)[C@H](CC(C)C)C[C@H](O)[C@H](Cc1ccccc1)NC(=O)c1ccc2ccccc2c1
- IC50 [1]: 10.3 µM
- IC50 (THP-1 [2]): > 25 µM

Compound: NC(=O)[C@H](CC1CCCC1)C[C@H](O)[C@H](Cc1ccccc1)NC(=O)c1cnc2ccccc2n1
- IC50 [1]: 0.048 µM
- IC50 (THP-1 [2]): 0.012 µM

Compound: CNC(=O)[C@H](CC(C)C)C[C@H](O)[C@H](Cc1ccc(F)cc1)NC(=O)c1cnc2ccccc2n1
- IC50 [1]: 2.6 µM
- IC50 (THP-1 [2]): 3 µM

Compound: CNC(=O)[C@H](CC(C)C)C[C@H](O)[C@H](Cc1ccc(O)cc1)NC(=O)c1cnc2ccccc2n1
- IC50 [1]: 0.61 µM
- IC50 (THP-1 [2]): 1.3 µM

Compound: CNC(=O)[C@H](CC(C)C)C[C@H](O)[C@H](Cc1ccccc1)NC(=O)c1cnnc2ccccc12
- IC50 [1]: 2.57 µM
- IC50 (THP-1 [2]): 1.1 µM

Compound: CN(C)CC[C@H](C[C@H](O)[C@H](Cc1ccccc1)NC(=O)c1cnc2ccccc2n1)C(N)=O
- IC50 [1]: 55.1 µM
- IC50 (THP-1 [2]): > 25 µM

Compound: CC[C@H](C)[C@H](NC(=O)c1cnc2ccccc2n1)[C@@H](O)C[C@@H](CC(C)C)C(=O)NC
- IC50 [1]: 4.2 µM
- IC50 (THP-1 [3]): Not Active

Compound: CNC(=O)[C@H](CC(C)C)C[C@H](O)[C@H](Cc1ccccc1)NC(=O)c1cncc(Br)c1
- IC50 [1]: 0.51 µM
- IC50 (THP-1 [3]): Not Active

Compound: CNC(=O)[C@H](CC(C)C)C[C@H](O)[C@H](Cc1ccc(OC)cc1)NC(=O)c1cnc2ccccc2n1
- IC50 [1]: 2.9 µM
- IC50 (THP-1 [2]): 2 µM

Compound: CNC(=O)[C@H](CC(C)C)C[C@H](O)[C@H](Cc1ccccc1)NC(=O)c1ccc2ncccc2c1
- IC50 [1]: 2.49 µM
- IC50 (THP-1 [2]): 3.3 µM

Compound: NC(=O)[C@@H](C[C@H](O)[C@H](Cc1ccccc1)NC(=O)c1cnc2ccccc2n1)C1CCOCC1
- IC50 [1]: 3.5 µM
- IC50 (THP-1 [2]): 12.5 µM

Compound: NC(=O)[C@H](Cc1ccccc1)C[C@H](O)[C@H](Cc1ccccc1)NC(=O)c1cnc2ccccc2n1
- IC50 [1]: 0.28 µM
- IC50 (THP-1 [2]): 0.12 µM

Compound: CNC(=O)[C@H](CC(C)C)C[C@H](O)[C@H](Cc1ccccc1)NC(=O)c1cnc2ccccc2n1
- IC50 [1]: 0.064 µM
- IC50 (THP-1 [2]): 0.064 µM

Compound: CNC(=O)[C@H](CC(C)C)C[C@H](O)[C@H](CC1CCCCC1)NC(=O)c1cnc2ccccc2c1
- IC50 (Homo sapiens): ~5 µM
- IC50 (THP-1 [2]): 0.84 µM

Compound: CNC(=O)[C@H](CC(C)C)C[C@H](O)[C@H](Cc1ccccc1)NC(=O)c1cccc2cccnc12
- IC50 [1]: > 32 µM
- IC50 (THP-1 [2]): > 25 µM

Compound: NC(=O)[C@@H](C[C@H](O)[C@H](Cc1ccccc1)NC(=O)c1cnc2ccccc2n1)C1CCCC1
- IC50 [1]: 0.026 µM
- IC50 (THP-1 [2]): 0.028 µM

Compound: CNC(=O)[C@H](CC(C)C)C[C@H](O)[C@H](Cc1ccccc1)NC(=O)c1cncc2ccccc12
- IC50 [1]: 5.15 µM
- IC50 (THP-1 [2]): 6.6 µM

Compound: NC(=O)[C@@H](C[C@H](O)[C@H](Cc1ccccc1)NC(=O)c1cnc2ccccc2n1)C1CCCCC1
- IC50 [1]: 0.008 µM
- IC50 (THP-1 [2]): 0.005 µM

Compound: CNC(=O)[C@H](CC(C)C)C[C@H](O)[C@H](Cc1ccccc1)NC(=O)c1cnc2ccccc2c1
- IC50 (THP-1 [2]): 0.46 µM

Compound: CNC(=O)[C@H](CC(C)C)C[C@H](O)[C@H](Cc1ccccc1)NC(=O)c1cccnc1
- IC50 [1]: > 32 µM
- IC50 (THP-1 [2]): > 25 µM

Compound: CC1CC([C@H](C[C@H](O)[C@H](Cc2ccccc2)NC(=O)c2cnc3ccccc3n2)C(N)=O)CC(C)O1 (stereo not given in full)
- IC50 [1]: 0.015 µM
- IC50 (THP-1 [2]): 0.005 µM

Compound: NC(=O)[C@H](CCO)C[C@H](O)[C@H](Cc1ccccc1)NC(=O)c1cnc2ccccc2n1
- IC50 [1]: 4.6 µM
- IC50 (THP-1 [2]): > 25 µM

Compound: CC(C)CCC[C@H](C[C@H](O)[C@H](Cc1ccccc1)NC(=O)c1cnc2ccccc2n1)C(N)=O
- IC50 [1]: 0.42 µM
- IC50 (THP-1 [2]): 0.069 µM

Compound: CNC(=O)[C@H](CC(C)C)C[C@H](O)[C@H](Cc1ccccc1)NC(=O)c1ccc2ccccc2n1
- IC50 [1]: 0.13 µM
- IC50 (THP-1 [2]): 0.89 µM

Compound: CNC(=O)[C@H](CC(C)C)C[C@H](O)[C@H](Cc1ccc(Cl)c(Cl)c1)NC(=O)c1cnc2ccccc2n1
- IC50 [1]: 0.16 µM
- IC50 (THP-1 [2]): 0.15 µM

Compound: CNC(=O)[C@H](CC(C)C)C[C@H](O)[C@H](CC1CCCCC1)NC(=O)c1cnc2ccccc2n1
- IC50 [1]: 0.67 µM
- IC50 (THP-1 [2]): 0.56 µM
